Results as given in article PMC10535824, “Tryptophan Substitution in CJ-15,208 (cyclo[Phe-D-Pro-Phe-Trp]) Introduces δ-Opioid Receptor Antagonism, Preventing Antinociceptive Tolerance and Stress-Induced Reinstatement of Extinguished Cocaine-Conditioned Place Preference” (Pharmaceuticals, 2023).
Like-named read-outs stand apart in the source and are kept apart here. Square brackets hold non-standard residues; d marks the D form. Peptide text beside a SMILES is read from it. 1Nal = N[C@@H](Cc1cccc2ccccc12)C(=O)O; 2Nal = N[C@@H](Cc1ccc2ccccc2c1)C(=O)O; d1Nal = N[C@H](Cc1cccc2ccccc12)C(=O)O; d2Nal = N[C@H](Cc1ccc2ccccc2c1)C(=O)O; Bta = N[C@@H](Cc1csc2ccccc12)C(=O)O; dBta = N[C@H](Cc1csc2ccccc12)C(=O)O

What was measured:
[1] = metabolism by mouse liver microsomes; assay type: in vitro ADME; conditions: read-out: t1/2 in mouse liver microsomes
Method: The metabolism of the macrocyclic tetrapeptides by mouse liver microsomes was evaluated as previously described, with the amount of peptide remaining determined by LC-MS/MS [55] using [D-MeAla^2]CJ-15,208 [53] as the internal standard.

[2] = molecular target: T1, rat KOR (Rattus norvegicus, UniProt P34975); test: radioligand equilibrium competition binding, KOR; conditions: CHO cell membranes, [3H]diprenorphine; mean ± SEM, at least three experiments
T1 construct: expressed in transfected cells
Method: (§1) Opioid receptor affinities were determined by equilibrium radioligand binding assays as previously described with membranes from Chinese hamster ovary (CHO) cells stably expressing rat KOR, rat MOR, or mouse DOR using the radioligands [^3H]diprenorphine, [^3H][D-Ala^2,N-MePhe^4,glyol]enkephalin (DAMGO), and [^3H][D-Pen^2,D-Pen^5]enkephalin (DPDPE), respectively. Following determination of IC50 values by nonlinear regression using Prism software (GraphPad Software Co., La Jolla, CA, USA), Ki values were calculated using the Cheng–Prusoff equation [57]. The results are presented as the mean ± SEM from at least three separate experiments, each performed in triplicate.

[3] = test system: C57BL/6J mice; test: 55 °C warm-water tail-withdrawal assay, antinociception after i.c.v. administration; assay type: in vivo, mouse; design: key: ~: Maximum antinociception not achieved, precluding calculation of an ED50 value
Method: For intracerebroventricular administration, the macrocyclic peptides were dissolved in dimethyl sulfoxide (DMSO), followed by addition of sterile saline (0.9%) so that the final vehicle was 50% DMSO and 50% saline, and the i.c.v. injections were performed as described previously. This concentration of DMSO was not observed to have antinociceptive or behavioral effects in previous use. All solutions for animal administration were prepared fresh daily.
The 55 °C warm-water tail-withdrawal assay was performed in mice as previously described, with the latency of the mouse to withdraw its tail from the water taken as the endpoint (a cut-off time of 15 s was used in this assay). Antinociception was calculated according to the following formula: % antinociception = 100 × (test latency − control latency)/(15 − control latency). Tail-withdrawal data points are the means of 8–16 mice, unless otherwise indicated, with SEM shown by error bars.
All dose–response lines were analyzed by regression, and ED50 (effective dose producing 50% antinociception) values and 95% C.I. were determined using individual data points from graded dose–-response curves with Prism 8.0 software (GraphPad, La Jolla, CA, USA). Percent antinociception was used to determine within-group effects and to allow comparison to baseline latency in tail-withdrawal experiments. The statistical significance of differences between ED50 values was determined by evaluation of the ED50 value shift via nonlinear regression modeling with Prism software. Significant differences in behavioral data were analyzed by ANOVA (one-way or two-way with repeated measures (RM), as appropriate). Significant results were further analyzed with Sidak’s, Tukey’s, or Dunnett’s multiple comparison post hoc tests, as appropriate. Data for conditioned place preference experiments were analyzed by one-way or two-way RM ANOVA, with analyses examining the main effect of conditioned place preference phase (e.g., pre- or post-conditioning) and the interaction of drug pretreatment and/or exposure. All data are presented as mean ± SEM, with significance set at p < 0.05.

[4] = molecular target: T2, mouse DOR (Mus musculus, UniProt P32300); test: radioligand equilibrium competition binding, DOR; conditions: CHO cell membranes, [3H]DPDPE; mean ± SEM, at least three experiments (D-Nal(1′)^4 n = 2)
T2 construct: expressed in transfected cells
Method: as §1

[5] = molecular target: T3, rat MOR (Rattus norvegicus, UniProt P33535); test: radioligand equilibrium competition binding, MOR; conditions: CHO cell membranes, [3H]DAMGO; mean ± SEM, at least three experiments
T3 construct: expressed in transfected cells
Method: as §1

[6] = test system: C57BL/6J mice; test: spontaneous locomotor activity (ambulation), CLAMS/Oxymax; assay type: in vivo, mouse; conditions: i.c.v.; [Nal(2′)^4]CJ-15,208 100 nmol, morphine 30 nmol; 80 min
Method: (§2) Respiration rates (in breaths per minute) and animal locomotive activity (as ambulation) were assessed using the Oxymax/CLAMS system (Columbus Instruments, Columbus, OH, USA) as described previously. Mice were habituated to their individual sealed housing chambers for 60 min before testing. […] Pressure monitoring within the sealed chambers measured frequency of respiration. Infrared beams located in the floor measured locomotion as number of beam breaks. Respiration and locomotive data were averaged over 20 min periods for 80 min post-injection of the test compound. Data are presented as % vehicle response ± SEM; ambulation, or breaths per minute.

[7] = test system: C57BL/6J mice; test: respiration rate, CLAMS/Oxymax; assay type: in vivo, mouse; conditions: i.c.v.; [Nal(2′)^4]CJ-15,208 100 nmol, morphine 30 nmol; 80 min
Method: as §2

[8] = test system: C57BL/6J mice; test: acute antinociceptive tolerance (dosing at 0 and 8 h); conditions: i.c.v.; for Naïve ED50 (95% C.I.): naïve mice
Method: The degree of tolerance was calculated from the shift in ED50 value from the singly to repeatedly treated condition.

[9] = test system: C57BL/6J mice; conditions: mouse, in vivo
[10] = molecular target: T1, rat KOR; conditions: parent peptides; mean ± SEM; cited from earlier work
[11] = molecular target: T2, mouse DOR; conditions: parent peptides; mean ± SEM; cited from earlier work
[12] = molecular target: T3, rat MOR; conditions: parent peptides; mean ± SEM; cited from earlier work
[13] = molecular target: T4, KOR (Mus musculus, UniProt P33534); test: antagonism of U50,488 antinociception, tail-withdrawal assay; assay type: in vivo; conditions: peptide i.c.v. (3-300 nmol, Figure 4) 140 min before U50,488 10 mg/kg i.p.
T4 construct: endogenous in cells; host or cells: living adult male C57BL/6J mice
Method: ; at this time, the antinociceptive activity of the analogs had dissipated. Antinociception produced by the established opioid agonists was then measured 40 min after their administration. The dose response of KOR or DOR antagonism produced by selected analogs was further determined by evaluating antinociception after administration of one of three additional i.c.v. doses of the analog.

[14] = test system: MOR, KOR, DOR; test: opioid receptor involvement in antinociception (KO mice / selective antagonist pretreatment), tail-withdrawal assay; assay type: in vivo, mouse; conditions: dose producing maximum antinociception, i.c.v., KOR KO mice or β-FNA, nor-BNI, naltrindole pretreatment
Method: Except for the Bta^4 analog, contributions of the MOR and KOR were assessed in knockout (KO) mice for those receptors; DOR contribution to the antinociceptive activity of the analogs was assessed by pretreating mice with naltrindole (20 mg/kg, i.p., −20 min) prior to administration of analog (Figure 3).
Assessment of DOR involvement in the agonist activity of each macrocyclic peptide was performed by pretreating additional wild-type mice with a single dose of naltrindole (20 mg/kg, i.p.) 20 min in advance of administration of the macrocyclic peptide.

[15] = antinociception at peak response
[16] = acute tolerance, dosing at 0 and 8 h

For `O=C1N[C@@H](Cc2ccccc2)C(=O)N2CCC[C@@H]2C(=O)N[C@@H](Cc2ccccc2)C(=O)N[C@H]1Cc1csc2ccccc12` [Bta^4, [Bta^4]CJ-15,208] (cyclo(F[dP]F[Bta])), which half-life [1] is on record?
Its half-life is 28 min.

And the Ki [2]?
Its Ki is 51.9 ± 4.8 nM.

And the “ED50 (and 95% C.I.) i.c.v.” value [3, 15]?
The value was 13.2 (9.62–18.2) nmol.

And the Ki [4]?
Its Ki is 1600 ± 360 nM.

And the Ki [5]?
The Ki was 90.3 ± 38.5 nM.

Which results are given for `O=C1N[C@H](Cc2csc3ccccc23)C(=O)N[C@@H](Cc2ccccc2)C(=O)N2CCC[C@@H]2C(=O)N[C@H]1Cc1ccccc1` [D-Bta^4, [D-Bta^4]CJ-15,208] (cyclo(F[dP]F[dBta]))?
Ki [2]: 4.29 ± 0.38 nM; Ki [4]: > 10000 nM; Ki [5]: 84.2 ± 11.8 nM

Which Ki [2] does the source give for `O=C1N[C@H](Cc2cccc3ccccc23)C(=O)N[C@@H](Cc2ccccc2)C(=O)N2CCC[C@@H]2C(=O)N[C@H]1Cc1ccccc1` [D-Nal(1′)^4, [D-Nal(1′)^4]CJ-15,208] (cyclo(F[dP]F[d1Nal])) here?
Its Ki is 21.4 ± 0.7 nM.

And the Ki [4]?
The Ki was over 10000 nM.

And the Ki [5]?
Its Ki is 101 ± 25 nM.

With `O=C1N[C@H](Cc2ccc3ccccc3c2)C(=O)N[C@@H](Cc2ccccc2)C(=O)N2CCC[C@@H]2C(=O)N[C@H]1Cc1ccccc1` [D-Nal(2′)^4, [D-Nal(2′)^4]CJ-15,208] (cyclo(F[dP]F[d2Nal])) as the compound, how does the Ki [2] read?
The Ki was 12.3 ± 1.8 nM.

And the “ED50 (and 95% C.I.) i.c.v.” value [3, 15]?
Its value is 31.2 (22.5–41.9) nmol.

And the Ki [4]?
Its Ki is over 10000 nM.

And the Ki [5]?
Its Ki is 63.8 ± 5 nM.

With `CN1CC[C@]23c4c5ccc(O)c4O[C@H]2[C@@H](O)C=C[C@H]3[C@H]1C5` [Morphine, reference compound] as the compound, how does the “effect on ambulation vs. vehicle” value [6] read?
The value was “significantly increased ambulation”.

What about the “ED50 (and 95% C.I.) i.c.v.” value [3, 15] of the same compound?
The value was 2.35 (1.13–5.03) nmol.

What about the “effect on respiration rate vs. vehicle” value [7] of the same compound?
Its value is “produced significant, time-dependent respiratory depression”.

What about the “Naïve ED50 (95% C.I.)” value [8] of the same compound?
The value was 2.35 (1.13–5.03) nmol.

And the “conditioned place preference or aversion” value ([9]; C57BL/6J)?
Its value is “significant (p = 0.03) place preference”.

For `O=C1N[C@@H](Cc2ccccc2)C(=O)N2CCC[C@@H]2C(=O)N[C@@H](Cc2ccccc2)C(=O)N[C@H]1Cc1cccc2ccccc12` [Nal(1′)^4, [Nal(1′)^4]CJ-15,208] (cyclo(F[dP]F[1Nal])), which Ki [2] is on record?
The Ki was 103 ± 6 nM.

And the “ED50 (and 95% C.I.) i.c.v.” value [3, 15]?
Its value is 0.24 (0.19–0.31) nmol.

And the Ki [4]?
The Ki was 1920 ± 120 nM.

What about the Ki [5] of the same compound?
Its Ki is 110 ± 16 nM.

With `O=C1N[C@@H](Cc2ccccc2)C(=O)N2CCC[C@@H]2C(=O)N[C@@H](Cc2ccccc2)C(=O)N[C@H]1Cc1ccc2ccccc2c1` [Nal(2′)^4, [Nal(2′)^4]CJ-15,208] (cyclo(F[dP]F[2Nal])) as the compound, how does the half-life [1] read?
Its half-life is over 60 min.

And the Ki [2]?
Its Ki is 358 ± 137 nM.

And the “effect on ambulation vs. vehicle” value [6]?
Its value is “not significant”.

What about the “ED50 (and 95% C.I.) i.c.v.” value [3, 15] of the same compound?
The value was 19.5 (15.8–24.0) nmol.

And the “effect on respiration rate vs. vehicle” value [7]?
Its value is “did not significantly impair breathing”.

What about the “Fold-Shift, Naïve ED50 vs. Second ED50” value [8, 16] of the same compound?
The value was 0.37.

What about the “leftward shift in the dose–response curve of the second dose” value [8, 16] of the same compound?
Its value is 2.7 fold.

What about the “Naïve ED50 (95% C.I.)” value [8] of the same compound?
Its value is 19.5 (15.8–24.0) nmol.

And the Ki [4]?
Its Ki is 3300 ± 360 nM.

What about the “conditioned place preference or aversion” value [9] of the same compound?
The value was “no significant preference or aversion”.

What about the Ki [5] of the same compound?
The Ki was 583 ± 59 nM.

Which results are given for cyclo(F[dP]FW) [CJ-15,208]?
Ki [10]: 27.4 ± 4.6 nM; ED50 (and 95% C.I.) i.c.v. [3, 15]: 1.74 (0.62–4.82) nmol; Ki [11]: 1720 ± 350 nM; Ki [12]: 451 ± 114 nM; antagonism of U50,488 antinociception (KOR antagonism) [13]: displayed significant KOR antagonism; Receptors Involved in antinociception [14]: KOR, MOR

Which results are given for cyclo(F[dP]F[dW]) [[D-Trp]CJ-15,208]?
Ki [10]: 21.8 ± 4.8 nM; ED50 (and 95% C.I.) i.c.v. ([3]; symbol where no ED50 could be calculated): ~; Ki [11]: 4190 ± 860 nM; Ki [12]: 259 ± 29 nM; antagonism of U50,488 antinociception (KOR antagonism) [13]: significantly antagonized U50,488-induced antinociception
